Results on 32 compounds are retold here after ChEMBL document CHEMBL5226282, “TLR2 Agonistic Small Molecules: Detailed Structure-Activity Relationship, Applications, and Future Prospects” (J Med Chem, 2021).

The target in one assay is Toll-like receptor 1/2 (Homo sapiens, UniProt O60603+Q15399). Briefly: Agonist activity at TLR2/TLR1 in human THP-1 cells. The format is cell-based.
For assay [1], the target named is Toll-like receptor 1/2 (Mus musculus). Briefly: Agonist activity at TLR2/TLR1 in mouse Macrophage cell line.

Toll-like receptor 1/2, sequence (O60603 whole entry): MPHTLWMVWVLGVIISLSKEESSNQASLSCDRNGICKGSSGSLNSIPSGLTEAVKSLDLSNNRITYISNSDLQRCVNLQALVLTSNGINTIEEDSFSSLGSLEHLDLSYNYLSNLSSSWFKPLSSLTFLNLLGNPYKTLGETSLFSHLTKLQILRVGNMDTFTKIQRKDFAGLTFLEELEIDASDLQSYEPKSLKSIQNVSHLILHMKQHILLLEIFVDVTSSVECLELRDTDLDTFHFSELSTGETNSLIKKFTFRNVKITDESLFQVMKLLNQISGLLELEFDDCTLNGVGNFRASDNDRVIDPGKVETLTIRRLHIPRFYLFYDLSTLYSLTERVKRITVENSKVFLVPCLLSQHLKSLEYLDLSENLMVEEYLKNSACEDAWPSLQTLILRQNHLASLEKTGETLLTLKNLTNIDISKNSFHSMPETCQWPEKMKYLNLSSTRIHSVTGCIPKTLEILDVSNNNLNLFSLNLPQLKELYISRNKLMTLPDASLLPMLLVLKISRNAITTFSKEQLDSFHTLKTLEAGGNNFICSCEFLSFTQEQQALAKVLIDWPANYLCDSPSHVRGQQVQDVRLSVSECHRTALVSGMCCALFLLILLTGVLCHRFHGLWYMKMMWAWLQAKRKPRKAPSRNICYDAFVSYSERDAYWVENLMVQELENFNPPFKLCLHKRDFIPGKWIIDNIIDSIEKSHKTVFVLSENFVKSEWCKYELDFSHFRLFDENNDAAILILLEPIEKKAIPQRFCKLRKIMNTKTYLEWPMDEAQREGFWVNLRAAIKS
Toll-like receptor 1/2, sequence (Q15399 whole entry): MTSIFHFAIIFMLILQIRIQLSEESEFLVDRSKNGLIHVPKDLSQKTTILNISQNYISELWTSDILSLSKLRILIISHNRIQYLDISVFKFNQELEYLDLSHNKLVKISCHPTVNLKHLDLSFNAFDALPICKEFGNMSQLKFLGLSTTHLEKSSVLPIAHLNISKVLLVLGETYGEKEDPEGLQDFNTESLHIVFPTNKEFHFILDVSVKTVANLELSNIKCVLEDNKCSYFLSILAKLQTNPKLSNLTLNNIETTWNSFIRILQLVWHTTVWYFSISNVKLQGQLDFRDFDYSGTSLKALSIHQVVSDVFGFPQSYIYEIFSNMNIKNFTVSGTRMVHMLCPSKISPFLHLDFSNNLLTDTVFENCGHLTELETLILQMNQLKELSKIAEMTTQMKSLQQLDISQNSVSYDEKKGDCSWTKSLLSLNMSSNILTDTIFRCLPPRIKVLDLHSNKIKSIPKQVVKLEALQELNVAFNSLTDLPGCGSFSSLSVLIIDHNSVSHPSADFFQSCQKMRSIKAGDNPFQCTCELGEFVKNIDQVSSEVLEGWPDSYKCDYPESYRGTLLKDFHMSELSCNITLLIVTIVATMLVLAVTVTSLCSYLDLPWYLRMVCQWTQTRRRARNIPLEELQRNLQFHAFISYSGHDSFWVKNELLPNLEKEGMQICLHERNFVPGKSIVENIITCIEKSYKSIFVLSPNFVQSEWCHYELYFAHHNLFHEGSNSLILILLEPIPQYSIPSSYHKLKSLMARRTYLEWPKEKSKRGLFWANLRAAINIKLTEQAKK

With `CCCCCCCCCCNC(=O)[C@@H]1CN(C(=O)c2ccc(C(=O)N3C[C@@H](C(=O)N[C@H]4C[C@@H]4c4ccccc4)[C@H](C(=O)N[C@@H]4C[C@H]4c4ccccc4)C3)cc2)C[C@H]1C(=O)N[C@H]1C[C@@H]1c1ccccc1`, the results for the EC50 (on Toll-like receptor 1/2; in assay [1]) were 0.1 nM and 650 nM, respectively.
In the same order, the values of `CCCNC(=O)[C@@H]1CN(C(=O)c2ccc(C(=O)N3C[C@@H](C(=O)N[C@H]4C[C@@H]4c4ccccc4)[C@H](C(=O)N[C@@H]4C[C@H]4c4ccccc4)C3)cc2)C[C@H]1C(=O)N[C@H]1C[C@@H]1c1ccccc1` are 17 nM and 360 nM.
For `CCCCCCCCCCNC(=O)[C@@H]1CN(C(=O)c2ccc(C(=O)N3C[C@@H](C(=O)NCCCCCCCCCC)[C@H](C(=O)N[C@@H]4C[C@H]4c4ccccc4)C3)cc2)C[C@H]1C(=O)N[C@@H]1C[C@H]1c1ccccc1`, in that order: 35 nM and 1100 nM.
In the same order, the values of `O=C(N[C@H]1C[C@@H]1c1ccc(F)cc1)[C@@H]1CN(C(=O)c2ccc(C(=O)N3C[C@@H](C(=O)N[C@H]4C[C@@H]4c4ccc(F)cc4)[C@H](C(=O)N[C@@H]4C[C@H]4c4ccc(F)cc4)C3)cc2)C[C@H]1C(=O)N[C@H]1C[C@@H]1c1ccc(F)cc1` are 0.13 nM and 1.2 nM.
On to `CCCCCCCCCCCCNC(=O)[C@@H]1CN(C(=O)c2ccc(C(=O)N3C[C@@H](C(=O)N[C@H]4C[C@@H]4c4ccccc4)[C@H](C(=O)N[C@@H]4C[C@H]4c4ccccc4)C3)cc2)C[C@H]1C(=O)NCCCCCCCCCCCC`, for which the EC50 – broadly, the concentration giving half of the maximal effect – came to 1.3 nM on Toll-like receptor 1/2 and 620 nM in assay [1].
In the same order, the values of `O=C(N[C@H]1C[C@@H]1c1ccccc1)[C@@H]1CN(C(=O)c2ccc(C(=O)N3C[C@@H](C(=O)N[C@H]4C[C@@H]4c4ccccc4)[C@H](C(=O)N[C@H]4C[C@@H]4c4ccccc4)C3)s2)C[C@H]1C(=O)N[C@H]1C[C@@H]1c1ccccc1` are 350 nM and over 5000 nM.
For `O=C(NCCc1ccc(F)cc1)[C@@H]1CN(C(=O)[C@H]2CC[C@H](C(=O)N3C[C@@H](C(=O)NCCc4ccc(F)cc4)[C@H](C(=O)NCCc4ccc(F)cc4)C3)CC2)C[C@H]1C(=O)NCCc1ccc(F)cc1`, in that order: over 5000 nM and over 5000 nM.
In the same order, the values of `CCCCCCCCCCCCNC(=O)[C@@H]1CN(C(=O)c2ccc(C(=O)N3C[C@@H](C(=O)N[C@H]4C[C@@H]4c4ccccc4)[C@H](C(=O)N[C@@H]4C[C@H]4c4ccccc4)C3)cc2)C[C@H]1C(=O)N[C@H]1C[C@@H]1c1ccccc1` are 0.1 nM and 2.1 nM.
Consider `Cc1ccc([C@H]2C[C@@H]2NC(=O)[C@@H]2CN(C(=O)c3ccc(C(=O)N4C[C@@H](C(=O)N[C@H]5C[C@@H]5c5ccc(C)cc5)[C@H](C(=O)N[C@@H]5C[C@H]5c5ccc(C)cc5)C4)cc3)C[C@H]2C(=O)N[C@H]2C[C@@H]2c2ccc(C)cc2)cc1`, for which the EC50 was 360 nM on Toll-like receptor 1/2 and over 5000 nM in assay [1].
For the compound `CCCCNC(=O)[C@@H]1CN(C(=O)c2ccc(C(=O)N3C[C@@H](C(=O)NCCCC)[C@H](C(=O)NCCCC)C3)cc2)C[C@H]1C(=O)NCCCC`, the EC50 (on Toll-like receptor 1/2; in assay [1]) was over 5 nM throughout.
Regarding `CCCCCCCCCCCCCCCCNC(=O)[C@@H]1CN(C(=O)c2ccc(C(=O)N3C[C@@H](C(=O)N[C@H]4C[C@@H]4c4ccccc4)[C@H](C(=O)N[C@@H]4C[C@H]4c4ccccc4)C3)cc2)C[C@H]1C(=O)NCCCCCCCCCCCCCCCC`, the half-maximal effective concentration (EC50) was 2.5 nM on Toll-like receptor 1/2 and 1000 nM in assay [1].
For `O=C(O)[C@@H]1CN(C(=O)c2ccc(C(=O)N3C[C@@H](C(=O)O)[C@H](C(=O)N[C@@H]4C[C@H]4c4ccccc4)C3)cc2)C[C@H]1C(=O)N[C@@H]1C[C@H]1c1ccccc1`, in that order: over 5000 nM and over 5000 nM.
For `CCCCCCNC(=O)[C@@H]1CN(C(=O)c2ccc(C(=O)N3C[C@@H](C(=O)N[C@H]4C[C@@H]4c4ccccc4)[C@H](C(=O)N[C@@H]4C[C@H]4c4ccccc4)C3)cc2)C[C@H]1C(=O)N[C@H]1C[C@@H]1c1ccccc1`, in that order: 0.25 nM and 80 nM.
For `CCCCCCNC(=O)[C@@H]1CN(C(=O)c2ccc(C(=O)N3C[C@@H](C(=O)N[C@H]4C[C@@H]4c4ccccc4)[C@H](C(=O)N[C@@H]4C[C@H]4c4ccccc4)C3)cc2)C[C@H]1C(=O)NCCCCCC`, in that order: 50 nM and 360 nM.
For `CCCCCCCCCCCCNC(=O)[C@@H]1CN(C(=O)c2ccc(C(=O)N3C[C@@H](C(=O)NCCCCCCCCCCCC)[C@H](C(=O)NCCCCCCCCCCCC)C3)cc2)C[C@H]1C(=O)NCCCCCCCCCCCC`, the EC50 (at Toll-like receptor 1/2; in assay [1]) was over 5 nM throughout.
For `O=C(N[C@H]1C[C@@H]1c1ccccc1)[C@@H]1CN(C(=O)c2cc(Cl)c(C(=O)N3C[C@@H](C(=O)N[C@H]4C[C@@H]4c4ccccc4)[C@H](C(=O)N[C@H]4C[C@@H]4c4ccccc4)C3)cc2Cl)C[C@H]1C(=O)N[C@H]1C[C@@H]1c1ccccc1`, the EC50 on Toll-like receptor 1/2 is 360 nM; in assay [1], over 5000 nM.
In the same order, the values of `O=C(NCCc1ccc(F)cc1)[C@@H]1CN(C(=O)c2ccc(C(=O)N3C[C@@H](C(=O)NCCc4ccc(F)cc4)[C@H](C(=O)NCCc4ccc(F)cc4)C3)c(O)c2)C[C@H]1C(=O)NCCc1ccc(F)cc1` are 130 nM and over 5000 nM.
For `COc1ccc([C@H]2C[C@@H]2NC(=O)[C@@H]2CN(C(=O)c3ccc(C(=O)N4C[C@@H](C(=O)N[C@H]5C[C@@H]5c5ccc(OC)cc5)[C@H](C(=O)N[C@@H]5C[C@H]5c5ccc(OC)cc5)C4)cc3)C[C@H]2C(=O)N[C@H]2C[C@@H]2c2ccc(OC)cc2)cc1`, in that order: over 5000 nM and over 5000 nM.
In the same order, the values of `O=C(N[C@H]1C[C@@H]1c1ccccc1)[C@@H]1CN(C(=O)/C=C/C(=O)N2C[C@@H](C(=O)N[C@H]3C[C@@H]3c3ccccc3)[C@H](C(=O)N[C@H]3C[C@@H]3c3ccccc3)C2)C[C@H]1C(=O)N[C@H]1C[C@@H]1c1ccccc1` are over 5000 nM and over 5000 nM.
In the case of `O=C(O)[C@@H]1CN(C(=O)c2ccc(C(=O)N3C[C@@H](C(=O)N[C@H]4C[C@@H]4c4ccccc4)[C@H](C(=O)N[C@@H]4C[C@H]4c4ccccc4)C3)cc2)C[C@H]1C(=O)N[C@H]1C[C@@H]1c1ccccc1`, the figures for the 50% effective concentration (EC50) (on Toll-like receptor 1/2; in assay [1]) were 200 nM and over 5000 nM, respectively.
Regarding `O=C(N[C@H]1C[C@@H]1c1ccccc1)[C@@H]1CN(C(=O)C/C=C/CC(=O)N2C[C@@H](C(=O)N[C@H]3C[C@@H]3c3ccccc3)[C@H](C(=O)N[C@H]3C[C@@H]3c3ccccc3)C2)C[C@H]1C(=O)N[C@H]1C[C@@H]1c1ccccc1`, the concentration for a half-maximal effect (EC50) (at Toll-like receptor 1/2; in assay [1]) was over 5000 nM each time.
For `O=C(N[C@H]1C[C@@H]1c1ccccc1)[C@@H]1CN(C(=O)c2cccc3c(C(=O)N4C[C@@H](C(=O)N[C@H]5C[C@@H]5c5ccccc5)[C@H](C(=O)N[C@H]5C[C@@H]5c5ccccc5)C4)cccc23)C[C@H]1C(=O)N[C@H]1C[C@@H]1c1ccccc1`, the 50% effective concentration (EC50) (at Toll-like receptor 1/2; in assay [1]) was over 5000 nM in each case.
In the case of `O=C(N[C@H]1C[C@@H]1c1ccccc1)[C@@H]1CN(C(=O)Cc2cnc(CC(=O)N3C[C@@H](C(=O)N[C@H]4C[C@@H]4c4ccccc4)[C@H](C(=O)N[C@H]4C[C@@H]4c4ccccc4)C3)cn2)C[C@H]1C(=O)N[C@H]1C[C@@H]1c1ccccc1`, the figures for the EC50 (on Toll-like receptor 1/2; in assay [1]) were 130 nM and over 5000 nM, respectively.
In the same order, the values of `CCCCCCCCCCCCCCNC(=O)[C@@H]1CN(C(=O)c2ccc(C(=O)N3C[C@@H](C(=O)N[C@H]4C[C@@H]4c4ccccc4)[C@H](C(=O)N[C@@H]4C[C@H]4c4ccccc4)C3)cc2)C[C@H]1C(=O)N[C@H]1C[C@@H]1c1ccccc1` are 0.08 nM and 1.1 nM.
On to `O=C(N[C@H]1C[C@@H]1c1ccccc1)[C@@H]1CN(C(=O)COCC(=O)N2C[C@@H](C(=O)N[C@H]3C[C@@H]3c3ccccc3)[C@H](C(=O)N[C@H]3C[C@@H]3c3ccccc3)C2)C[C@H]1C(=O)N[C@H]1C[C@@H]1c1ccccc1`, for which the EC50 (on Toll-like receptor 1/2; in assay [1]) was over 5000 nM throughout.
With `O=C(NCCc1ccc(F)cc1)[C@@H]1CN(C(=O)COCC(=O)N2C[C@@H](C(=O)NCCc3ccc(F)cc3)[C@H](C(=O)NCCc3ccc(F)cc3)C2)C[C@H]1C(=O)NCCc1ccc(F)cc1`, the concentration giving a half-maximal response (EC50) (at Toll-like receptor 1/2; in assay [1]) was over 5000 nM each time.
Turning to `COC(=O)[C@@H]1CN(C(=O)c2ccc(C(=O)N3C[C@@H](C(=O)N[C@H]4C[C@@H]4c4ccccc4)[C@H](C(=O)N[C@@H]4C[C@H]4c4ccccc4)C3)cc2)C[C@H]1C(=O)N[C@H]1C[C@@H]1c1ccccc1`, the concentration for a half-maximal effect (EC50) worked out at 15 nM at Toll-like receptor 1/2 and 640 nM in assay [1].
As to `O=C(N[C@H]1C[C@@H]1c1ccccc1)[C@@H]1CN(C(=O)[C@H]2CC[C@@H](C(=O)N3C[C@@H](C(=O)N[C@H]4C[C@@H]4c4ccccc4)[C@H](C(=O)N[C@H]4C[C@@H]4c4ccccc4)C3)CC2)C[C@H]1C(=O)N[C@H]1C[C@@H]1c1ccccc1`, the EC50 (at Toll-like receptor 1/2; in assay [1]) was over 5000 nM in each case.
With `O=C(N[C@H]1C[C@@H]1c1ccccc1)[C@@H]1CN(C(=O)c2c(F)c(F)c(C(=O)N3C[C@@H](C(=O)N[C@H]4C[C@@H]4c4ccccc4)[C@H](C(=O)N[C@H]4C[C@@H]4c4ccccc4)C3)c(F)c2F)C[C@H]1C(=O)N[C@H]1C[C@@H]1c1ccccc1`, the EC50 at Toll-like receptor 1/2 was 110 nM; in assay [1], over 5000 nM.
In the same order, the values of `COC(=O)[C@@H]1CN(C(=O)c2ccc(C(=O)N3C[C@@H](C(=O)N[C@@H]4C[C@H]4c4ccccc4)[C@H](C(=O)OC)C3)cc2)C[C@H]1C(=O)N[C@@H]1C[C@H]1c1ccccc1` are over 5000 nM and over 5000 nM.
For `CCCCCCCCNC(=O)[C@@H]1CN(C(=O)c2ccc(C(=O)N3C[C@@H](C(=O)N[C@H]4C[C@@H]4c4ccccc4)[C@H](C(=O)N[C@@H]4C[C@H]4c4ccccc4)C3)cc2)C[C@H]1C(=O)N[C@H]1C[C@@H]1c1ccccc1`, the values for the EC50 (on Toll-like receptor 1/2; in assay [1]) were 0.33 nM and 540 nM, respectively.
For `O=C(N[C@H]1C[C@@H]1c1ccccc1)[C@@H]1CN(C(=O)c2ccc(C(=O)N3C[C@@H](C(=O)N[C@H]4C[C@@H]4c4ccccc4)[C@H](C(=O)N[C@H]4C[C@@H]4c4ccccc4)C3)c(O)c2)C[C@H]1C(=O)N[C@H]1C[C@@H]1c1ccccc1`, in that order: 20 nM and over 5000 nM.
